Results from ChEMBL document CHEMBL1127918, “The role of peptide bond in chemotactic for-met-leu-phe-ome focused by depsipeptide analogs” (1994).
Where a SMILES comes first, the peptide text is derived from it. [ ]: non-standard residue; d: D form. The star is where a group is joined. PhLac = O=C(O)[C@@H](O)Cc1ccccc1; NHBn = c1ccc(CN*)cc1; For = O=C*

Assays:
Format in all cases: functional
Homo sapiens [1] = species on record: Homo sapiens; test: (§1) Chemotactic activity was expressed as percentage of random locomotion
Homo sapiens [2] = species on record: Homo sapiens; test: (§2) Superoxide anion release expressed as n moles of superoxide anion/2E6 neutrophils/5 min
Homo sapiens [3] = species on record: Homo sapiens; test: as §1; remark: listed apart in the source
Homo sapiens [4] = species on record: Homo sapiens; test: as §2; remark: listed apart in the source
Homo sapiens [5] = species on record: Homo sapiens; test: as §1; remark: listed apart in the source
Homo sapiens [6] = species on record: Homo sapiens; test: as §2; remark: listed apart in the source
Homo sapiens [7] = species on record: Homo sapiens; test: lysozyme release expressed as percentage of total enzyme content released by 0.1% Triton X-100
Homo sapiens [8] = species on record: Homo sapiens; test: Chemotactic activity was expressed as percentage of random locomotion of human neutrophils
Homo sapiens [9] = species on record: Homo sapiens; test: Chemotactic activity was expressed as percentage of random locomotion human neutrophils

| SMILES | Chemotactic activity (% of random locomotion) (Homo sapiens [1]) | Superoxide anion release (Homo sapiens [2]) | Chemotactic activity (% of random locomotion) (Homo sapiens [3]) | Superoxide anion release (Homo sapiens [4]) | Chemotactic activity (% of random locomotion) (Homo sapiens [5]) | chemotactic activity (% of random locomotion) at 10^-8 M (Homo sapiens [5]) | Superoxide anion release (Homo sapiens [6]) | Superoxide anion release at 10^-8 M (Homo sapiens [6]) | Log [-5] (Homo sapiens [7]) | Log [-6] (Homo sapiens [7]) | Log [-7] (Homo sapiens [7]) | Log [-8] (Homo sapiens [7]) | Chemotactic activity at 10^-10 M (% of random locomotion) (Homo sapiens [8]) | Log [-9] (Homo sapiens [8]) | Log [-9] (Homo sapiens [9]) |
| --- | --- | --- | --- | --- | --- | --- | --- | --- | --- | --- | --- | --- | --- | --- | --- |
| COC(=O)[C@H](Cc1ccccc1)NC(=O)C(C)(N)COC(=O)[C@H](CCSC)NC=O (stereo partly specified) | 4 | 0 | 7 | 0 | 14 | 14 | 0 | 0 | 15 | 13 | 11 | 15 | 10 | 9 |  |
| CSCC[C@H](NC=O)C(=O)N[C@@H](CC(C)C)C(=O)O[C@@H](Cc1ccccc1)C(=O)NCc1ccccc1 (For-Met-Leu-[PhLac]-NHBn) | 20 | 32 | 55 | 24 | 51 | 51 | 14 | 8 | 40 | 38 | 35 | 24 | 62 | 54 |  |
| COC(=O)[C@H](Cc1ccccc1)NC(=O)[C@H](CC(C)C)OC(=O)[C@H](CCSC)NC=O | 10 | 0 | 9 | 0 | 13 | 8 | 0 | 0 | 10 | 12 | 10 | 11 | 0 |  | 11 |
| COC(=O)[C@H](Cc1ccccc1)NC(=O)[C@H](CC(C)C)NC(=O)[C@H](CCSC)NC=O | 36 | 37 | 62 | 43 | 85 | 105 | 44 | 7 | 62 | 67 | 59 | 54 | 105 | 115 |  |
